{"source": "patent US10717735B2", "about": "“Solid forms of a compound for modulating kinases” (Plexxikon Inc., priority 2017, dated 2020)", "key": {"[1]": {"test": "Solubility estimates by solvent aliquot addition, visual observation", "assay_type": "physicochemical", "procedure": "Aliquots of various solvents were added to measured amounts of Compound I or forms of Compound I as described herein with agitation (typically sonication) at ambient temperature until complete dissolution was achieved, as judged by visual observation. Solubilities were calculated based on the total solvent used to give a solution; actual solubilities may be greater because of the volume of solvent portions utilized or a slow rate of dissolution. […] If dissolution occurred at the first aliquot the value was reported as “>”."}, "[2]": {"test": "Dynamic vapor sorption (DVS)", "assay_type": "physicochemical", "conditions": "from about 5% to about 95% RH", "procedure": "Dynamic Vapor […] DVS data were collected on a VTI SGA-100 Vapor Sorption Analyzer. NaCl and PVP were used as calibration standards. Samples were not dried prior to analysis. Adsorption and desorption data were collected over a range from 5 to 95% RH at 10% RH increments under a nitrogen purge. The equilibrium criterion used for analysis was less than 0.0100% weight change in 5 minutes with a maximum equilibration time of 3 hours. Data were not corrected for the initial moisture content of the samples."}, "[3]": {"system": "Eμ-TCL1 leukemic splenocytes", "test": "Survival of mice engrafted with Eμ-TCL1 leukemic splenocytes, comparison with Ibrutinib", "assay_type": "in vivo, C57BL/6 mice", "conditions": "20 mg/kg, qd; for median overall survival (OS): oral gavage at leukemia onset, vehicle 21 days (FIG. 24H)", "procedure": "FIG. 24H is a Kaplan-Meier curve showing overall survival for C57BL/6 mice engrafted with Eμ-TCL1 leukemic splenocytes treated with Ibrutinib or Compound I Free Acid Amorphous (20 mg/kg, qd, oral gavage) at leukemia onset, where the median OS is: 41 days (Compound I Free Acid Amorphous, n=7), 32 days (Ibrutinib, n=8) and 21 days (vehicle, n=7). […] Survival comparisons for FIG. 24H were made with the log-rank test, and p-values were adjusted for multiple comparisons.\nFIG. 24H is a Kaplan-Meier curve showing overall survival (OS) for C57BL/6 mice engrafted with Eμ-TCL1 leukemic splenocytes treated with Ibrutinib or Compound I Free Acid Amorphous (Cmpd. I FAA) (20 mg/kg, qd, oral gavage) at leukemia onset. Survival comparisons for FIG. 24H were made with the log-rank test, and p-values were adjusted for multiple comparisons.\nIbrutinib is currently the standard of care (first-in-line) treatment."}, "[4]": {"system": "Eμ-TCL1 with advanced leukemia", "test": "Pharmacodynamic evaluation of antitumor effects in Eμ-TCL1 with advanced leukemia", "assay_type": "in vivo, Mice", "conditions": "20 mg/kg, qd, oral gavage, 8 days", "procedure": "FIG. 24 panels A-C illustrate data related to the pharmacodynamic evaluation of antitumor effects of Compound I Free Acid Amorphous in Eμ-TCL1 with advanced leukemia. Mice were stratified according to leukemic peripheral blood lymphocytes (PBLs) and spleen palpation score to receive either vehicle or Compound I Free Acid Amorphous (20 mg/kg, qd, oral gavage) for 8 days. […] FIG. 24C is a representative immunoblot analysis of relative protein levels of cMYC, P21, BTK, IKZF1, IKZF3 and TCL1A protein at the end of the 8 day study. […] Mice were stratified according to leukemic peripheral blood lymphocytes (PBLs) and spleen palpation score to receive either vehicle or Compound I Free Acid Amorphous (20 mg/kg, qd, oral gavage) for 8 days. […] FIG. 24C is a representative immunoblot analysis of relative protein levels of cMYC, P21, BTK, IKZF1, IKZF3 and TCL1A protein at the end of the 8 day study."}, "[5]": {"system": "adaptive transfer model of Eμ-TCL1", "test": "Adaptive transfer model of Eμ-TCL1, treatment at leukemia onset", "assay_type": "in vivo, wild type mice", "conditions": "20 mg/kg, qd", "procedure": "(§1) FIG. 24 panels D-G: using an adaptive transfer model of Eμ-TCL1, recipient wild type mice were randomized to receive vehicle (n=12) or Compound I Free Acid Amorphous (20 mg/kg, qd, oral gavage, n=10) at leukemia onset and disease progression was measured by flow cytometry as % CD19/CD5/CD45 positive PBL. Treatment was ended at 150 days. FIG. 24D is a Kaplan-Meier curve showing overall survival (OS) (p<0.0001), with the median OS for Compound I Free Acid Amorphous and the vehicle being 93 days and 34 days, respectively. Survival comparisons for FIG. 24D were made with the log-rank test, and p-values were adjusted for multiple comparisons. Compound I Free Acid Amorphous decreased the percentage of circulating leukemic PBL (FIG. 24E), and reduced spleen mass (FIG. 24F).\nas §1, with “Using” for “FIG. 24 panels D-G: using”"}, "[6]": {"system": "pre-clinical models of CLL", "conditions": "in vitro and in vivo; cited from earlier work"}, "uveal melanoma (UM)": {"system": "uveal melanoma (UM)", "conditions": "mouse xenograft models of uveal melanoma; cited from earlier work"}, "[7]": {"conditions": "methanol (MeOH), ambient temperature"}}, "note": "Like-named read-outs stand apart in the source and are kept apart here."}
{"smiles": "Cc1noc(C)c1-c1cnc2c(-c3ccc(C(=O)O)cc3)cn([C@@H](C)c3ccccn3)c2c1", "note": "[Compound I Form A, 4-(6-(3,5-dimethylisoxazol-4-yl)-1-[(1S)-1-(2-pyridyl)ethyl]pyrrolo[3,2-b]pyridin-3-yl)benzoic acid]", "values": [{"measurement": "solubility", "setting": "[1]; acetone, ambient temperature", "result": 36000, "unit": "µg/mL"}, {"measurement": "solubility", "setting": "[1]; acetonitrile, organic solvent or mixture, thermodynamic from solid, acetonitrile (ACN), ambient temperature, read-out: Solubility", "result": 6000, "unit": "µg/mL"}, {"measurement": "solubility", "setting": "[1]; dichloromethane, organic solvent or mixture, thermodynamic from solid, dichloromethane (DCM), ambient temperature, read-out: Solubility", "result": 12000, "unit": "µg/mL"}, {"measurement": "solubility", "setting": "[1]; [7]", "result": 6000, "unit": "µg/mL"}, {"measurement": "solubility", "setting": "[1]; toluene, organic solvent or mixture, thermodynamic from solid, toluene, ambient temperature, read-out: Solubility", "result": "< 4000", "unit": "µg/mL"}, {"measurement": "DVS weight gain", "setting": "[2]", "result": "about 0.8%"}]}
{"smiles": "Cc1noc(C)c1-c1cnc2c(-c3ccc(C(=O)O)cc3)cn([C@@H](C)c3ccccn3)c2c1", "note": "[Compound I Form D, 4-(6-(3,5-dimethylisoxazol-4-yl)-1-[(1S)-1-(2-pyridyl)ethyl]pyrrolo[3,2-b]pyridin-3-yl)benzoic acid]", "values": [{"measurement": "solubility", "setting": "[1]; acetone, ambient temperature", "result": 4000, "unit": "µg/mL"}, {"measurement": "solubility", "setting": "[1]; acetonitrile (ACN), ambient temperature", "result": "<3000", "unit": "µg/mL"}, {"measurement": "solubility", "setting": "[1]; chloroform, organic solvent or mixture, thermodynamic from solid, chloroform, ambient temperature, read-out: Solubility", "result": "> 59000", "unit": "µg/mL"}, {"measurement": "solubility", "setting": "[1]; dichloromethane (DCM), ambient temperature", "result": 24000, "unit": "µg/mL"}, {"measurement": "solubility", "setting": "[1]; diethyl ether, organic solvent or mixture, thermodynamic from solid, diethyl ether, ambient temperature, read-out: Solubility", "result": "< 2000", "unit": "µg/mL"}, {"measurement": "solubility", "setting": "[1]; dioxane, organic solvent or mixture, thermodynamic from solid, dioxane, ambient temperature, read-out: Solubility", "result": "< 2000", "unit": "µg/mL"}, {"measurement": "solubility", "setting": "[1]; ethanol, organic solvent or mixture, thermodynamic from solid, ethanol (EtOH), ambient temperature, read-out: Solubility", "result": 9000, "unit": "µg/mL"}, {"measurement": "solubility", "setting": "[1]; ethyl acetate, organic solvent or mixture, thermodynamic from solid, ethyl acetate (EtOAc), ambient temperature, read-out: Solubility", "result": "< 2000", "unit": "µg/mL"}, {"measurement": "solubility", "setting": "[1]; isopropyl alcohol, organic solvent or mixture, thermodynamic from solid, isopropyl alcohol (IPA), ambient temperature, read-out: Solubility", "result": 4000, "unit": "µg/mL"}, {"measurement": "solubility", "setting": "[1]; [7]", "result": ">72000", "unit": "µg/mL"}, {"measurement": "solubility", "setting": "[1]; tetrahydrofuran, organic solvent or mixture, thermodynamic from solid, tetrahydrofuran (THF), ambient temperature, read-out: Solubility", "result": 4000, "unit": "µg/mL"}, {"measurement": "solubility", "setting": "[1]; toluene, ambient temperature", "result": "<2000", "unit": "µg/mL"}, {"measurement": "solubility", "setting": "[1]; water, thermodynamic from solid, water, ambient temperature, read-out: Solubility", "result": 23000, "unit": "µg/mL"}]}
{"smiles": "Cc1noc(C)c1-c1cnc2c(-c3ccc(C(=O)O)cc3)cn([C@@H](C)c3ccccn3)c2c1", "note": "[Compound I Free Acid Amorphous, 4-(6-(3,5-dimethylisoxazol-4-yl)-1-[(1S)-1-(2-pyridyl)ethyl]pyrrolo[3,2-b]pyridin-3-yl)benzoic acid]", "values": [{"measurement": "median overall survival (OS)", "setting": "[3]", "result": 41, "unit": "days"}, {"measurement": "survival compared with vehicle (p=0.024) and Ibrutinib (p=0.049)", "setting": "[3]; oral gavage, log-rank test", "result": "significantly increased survival"}, {"measurement": "leukemic cells in systemic circulation", "setting": "[4]; vs vehicle (FIG. 24A)", "result": "reduced"}, {"measurement": "leukemic cells locally in spleen", "setting": "[4]; vs vehicle (FIG. 24B)", "result": "reduced"}, {"measurement": "spleen mass", "setting": "[5]; oral gavage (FIG. 24F)", "result": "reduced"}, {"measurement": "HE staining of spleen, lung and blood: lymphocytes", "setting": "[5]; oral gavage (FIG. 24G)", "result": "depleted of lymphocytes"}, {"measurement": "Ki67 staining of spleen, lung and blood", "setting": "[5]; oral gavage (FIG. 24G)", "result": "mostly absent"}, {"measurement": "median overall survival (OS)", "setting": "[5]; oral gavage at leukemia onset, vehicle 34 days, p<0.0001 (FIG. 24D)", "result": 93, "unit": "days"}, {"measurement": "percentage of circulating leukemic PBL", "setting": "[5]; oral gavage, % CD19/CD5/CD45 positive PBL by flow cytometry (FIG. 24E)", "result": "decreased"}]}
{"smiles": "Cc1noc(C)c1-c1cnc2c(-c3ccc(C(=O)O)cc3)cn([C@@H](C)c3ccccn3)c2c1", "note": "[Compound I, 4-(6-(3,5-dimethylisoxazol-4-yl)-1-[(1S)-1-(2-pyridyl)ethyl]pyrrolo[3,2-b]pyridin-3-yl) benzoic acid]", "values": [{"measurement": "solubility", "setting": "[1]; acetone, organic solvent or mixture, thermodynamic from solid, Acetone, read-out: Solubility", "result": 3000, "unit": "µg/mL"}, {"measurement": "solubility", "setting": "[1]; acetonitrile, organic solvent or mixture, thermodynamic from solid, Acetonitrile, read-out: Solubility", "result": "< 1000", "unit": "µg/mL"}, {"measurement": "solubility", "setting": "[1]; dichloromethane, organic solvent or mixture, thermodynamic from solid, Dichloromethane, read-out: Solubility", "result": "< 1000", "unit": "µg/mL"}, {"measurement": "solubility", "setting": "[1]; dimethyl sulfoxide, organic solvent or mixture, thermodynamic from solid, Dimethyl sulfoxide, read-out: Solubility", "result": "> 93000", "unit": "µg/mL"}, {"measurement": "solubility", "setting": "[1]; ethanol, organic solvent or mixture, thermodynamic from solid, Ethanol, read-out: Solubility", "result": "< 1000", "unit": "µg/mL"}, {"measurement": "solubility", "setting": "[1]; ethyl acetate, organic solvent or mixture, thermodynamic from solid, Ethyl acetate, read-out: Solubility", "result": "< 1000", "unit": "µg/mL"}, {"measurement": "solubility", "setting": "[1]; isopropanol, organic solvent or mixture, thermodynamic from solid, Isopropanol, read-out: Solubility", "result": "< 1000", "unit": "µg/mL"}, {"measurement": "solubility", "setting": "[1]; methanol, organic solvent or mixture, thermodynamic from solid, Methanol, read-out: Solubility", "result": 1000, "unit": "µg/mL"}, {"measurement": "solubility", "setting": "[1]; tetrahydrofuran, organic solvent or mixture, thermodynamic from solid, Tetrahydrofuran, read-out: Solubility", "result": 19000, "unit": "µg/mL"}, {"measurement": "solubility", "setting": "[1]; water, thermodynamic from solid, Water, read-out: Solubility", "result": "< 1000", "unit": "µg/mL"}, {"measurement": "efficacy relative to B-cell receptor (BCR) signaling agents", "setting": "[6]", "result": "emulatesor exceeds the efficacy of B-cell receptor (BCR) signaling agents"}, {"measurement": "tumor growth", "setting": "uveal melanoma (UM)", "result": "significantly inhibited tumor growth"}]}
{"smiles": "C=CC(=O)N1CCC[C@@H](n2nc(-c3ccc(Oc4ccccc4)cc3)c3c(N)ncnc32)C1", "note": "[Ibrutinib, reference compound]", "values": [{"measurement": "median overall survival (OS)", "setting": "[3]", "result": 32, "unit": "days"}]}
